In PubChem BioAssay (NCI) one finds GI50 and TGI data, which are given here for eleven molecules.

Common to all, as to experiment: DTP human tumour cell line panel, 48 h
The subject of test [1] is ACHN renal.
The subject of test [2] is DU-145 prostate.
In test [3] the test system is HCC-2998 colon.
Test [4] relates to HOP-62 NSCLC.
The test system of test [5] is HS 578T breast.
In test [6] the test system is M14 melanoma.
For test [7], the system named is MDA-MB-231 breast.
The subject of test [8] is MDA-MB-435.
The subject of test [9] is SF-295 CNS.
Test [10] concerns SK-OV-3 ovarian.

Several values for one entry are separate records, joined by “and”; a condition that tells them apart may be missing. Identical values can stand only once.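 These data come from cells grown in 96-well plates and exposed to compound for 48 hours at five concentrations. The concentration for 50% growth inhibition is given as GI50. TGI marks complete inhibition of growth.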

What is called GI50 is the concentration at which growth is held to half of that of the control. As usually defined, the TGI is the concentration giving total growth inhibition. High values mean lower sensitivity of the cells, low ones greater sensitivity of the cells. Take `COc1c(O)c2c3c(c1OC)-c1ccccc1CC3N(S(=O)(=O)c1ccc(C)cc1)CC2` (centres undefined): the GI50 in test [1] is 2.91 µM; in test [2] it was 1.62 µM; in test [3], 4.01 µM; in [4] it was 2.77 µM; in test [5], 1.2 µM; in [6], 1.81 µM. For the same molecule, the GI50 in test [7] was 2.01 µM; in test [8] it was 1.07 µM; in test [9] it was 2.07 µM; in test [10] it was 1.96 µM. Besides, the TGI is over 50 µM in test [1]; 6.41 µM in [2]; 34.1 µM in test [3]; over 50 µM in [4]; 4.03 µM in test [5]; over 50 µM in [6]. In addition, the TGI in [7] was over 50 µM; in [8], 2.92 µM; in test [9], 30.6 µM; in test [10], 38.4 µM.

Turning to `Cc1nc2c(Br)cc(Br)cc2c(=O)n1-c1ccccc1NC1OCC(O)C(O)C1O` (centres undefined), the TGI in test [1] is > 100 µM and 51.8 µM; in test [2] it was > 100 µM and 46.3 µM; in test [3], over 100 µM; in test [4], > 100 µM and 35.7 µM; in test [5] it was over 100 µM; in test [6] it was 46.7 µM and > 100 µM. For the same molecule, the TGI in [7] is over 100 µM; in [8] it was over 100 µM; in test [9], > 100 µM and 65.3 µM; in test [10], over 100 µM. Also, the GI50 in test [2] was 44.9 µM and 19.2 µM; in test [4] it was > 100 µM and 10.3 µM; in test [9], 43.1 µM and 14 µM; in test [10] it was 76.3 µM and 29.9 µM.

Regarding `COc1ccc(OCC(O)CN2CCN(c3ccc(Cl)cc3)CC2)cc1` (centres undefined), the GI50 in [1] was 65.9 µM; in test [2], over 100 µM; in test [3] it was over 100 µM; in [4], 28.4 µM; in test [5] it was over 100 µM; in [6], over 100 µM. Besides, the GI50 in [7] was 66.1 µM; in test [8] it was over 100 µM; in test [9] it was over 100 µM; in test [10], over 100 µM. Further, the concentration for total growth inhibition (TGI) in test [1], in test [2], in test [3], in [4], in test [5] and in test [6] was over 100 µM in each case. Besides, the TGI in test [7], in test [8], in test [9] and in [10] was over 100 µM in each case.

Consider `C=C1CC/C=C(\C)CC[C@H](C(=C)C)[C@@H](O)/C=C(/CO)CCC1O` (some centres undefined), for which the GI50 was over 100 µM in test [1]; 93.2 µM in test [2]; over 100 µM in test [3]; over 100 µM in [4]; 42.5 µM in [5]; 71.7 µM in [6]. The GI50 was over 100 µM in [7], 40.5 µM in [8], 71.9 µM in test [9] and over 100 µM in test [10]. Besides, the TGI in [1], in test [2], in [3], in [4], in [5] and in [6] was over 100 µM throughout. Further, the TGI in test [7], in test [8], in test [9] and in test [10] was over 100 µM each time.

As to `CC1(C)CC[C@]2(C(=O)O)CC[C@]3(C)C(=CC[C@@H]4[C@@]5(C)C/C(=C/c6ccco6)C(=O)C(C)(C)[C@@H]5CC[C@]43C)[C@@H]2C1`, the GI50 in [1] is 2.89 µM; in test [2] it was 4.02 µM; in test [3], 3.15 µM; in test [4] it was 3.75 µM; in [5], 5.19 µM; in test [6], 4.51 µM. The GI50 is 3.49 µM in test [7], 3.63 µM in test [8], 3.22 µM in test [9] and 4.22 µM in test [10]. In addition, the TGI in test [1] was found to be 11.1 µM; in test [2], 15.1 µM; in [3], 12.2 µM; in test [4] it was 14.9 µM; in test [5] it was 54.1 µM; in [6] it was 21.6 µM. Further, the TGI in [7] came out at 19.5 µM; in [8], 14.1 µM; in [9], 18.1 µM; in test [10] it was 79.4 µM.

For the molecule `NC(N)=N/N=C(/c1ccccc1)c1ccccc1F`, the GI50 in [1] was 4.49 µM; in [2] it was 3.56 µM; in [3], 1.39 µM; in test [4] it was 4.62 µM; in test [5], 2.79 µM; in test [6] it was 1.7 µM. In addition, the GI50 in test [7] was 3.34 µM; in [8], 0.347 µM; in test [9], 2.43 µM; in test [10], 4.82 µM. For the same molecule, the TGI in test [1] was 20 µM; in [2], 16.6 µM; in [3] it was 4.73 µM; in test [4], 18.2 µM; in test [5] it was 11.6 µM; in test [6], 9.59 µM. In addition, the TGI in test [7] came to 11.8 µM; in test [8], 3.81 µM; in test [9], 14.3 µM; in test [10] it was 37.9 µM.

As to `CCSc1ncc(Br)c(Sc2nc(N)nc3nc[nH]c23)n1`, the GI50 is 6.58 µM in [1]; 2.95 µM in test [2]; 2.78 µM in [3]; 1.64 µM in [4]; 7.47 µM in [5]; 1.79 µM in [6]. The GI50 is 2.8 µM in [7], 3.72 µM in test [8], 1.82 µM in [9] and 2.76 µM in [10]. Further, the concentration for total growth inhibition (TGI) in test [1] is over 100 µM; in test [2], 60.9 µM; in test [3], 32.2 µM; in [4] it was 24.4 µM; in [5] it was over 100 µM; in [6], 8.68 µM. The TGI was over 100 µM in test [7], over 100 µM in [8], over 100 µM in [9] and 48.9 µM in [10].

As to `COc1ccc(Cc2nc3cc(OC)c(OC)cc3c(=O)[nH]2)cc1`, the GI50 in test [1] is 9.14 µM; in [2], 9.38 µM; in [3], 2.98 µM; in [4] it was 8.69 µM; in test [5] it was 9.98 µM; in test [6], 4.13 µM. In addition, the GI50 was 9.83 µM in test [7], 5.15 µM in test [8], 5.21 µM in [9] and 88.5 µM in test [10]. Besides, the TGI in [1] was over 100 µM; in test [2], over 67 µM; in [3] it was 17.1 µM; in [4] it was over 81.5 µM; in test [5], 99.2 µM; in test [6], over 41.2 µM. Further, the TGI is over 100 µM in [7], 57.1 µM in test [8], over 26.9 µM in [9] and over 100 µM in test [10].

`C#Cc1cccc(NC(=O)C2CCCN(C(=O)CCl)C2)c1` (centres undefined): the GI50 in test [1] was 16.1 µM; in test [2], over 82.5 µM; in test [3], over 82.5 µM; in test [4], over 82.5 µM; in test [5], over 82.5 µM; in test [6] it was 29.9 µM. Further, the GI50 in [7] is over 82.5 µM; in [8] it was 69.8 µM; in [9] it was over 82.5 µM; in test [10], over 82.5 µM. In addition, the TGI in test [1] is 31.6 µM; in test [2] it was over 82.5 µM; in test [3], over 82.5 µM; in [4], over 82.5 µM; in test [5], over 82.5 µM; in [6], over 82.5 µM. The TGI in [7], in test [8], in test [9] and in test [10] was over 82.5 µM each time.

As for `COc1ccc(/C=C\c2cc(OC)c(OC)c(OC)c2)c(NS(=O)(=O)c2ccc(C(C)(C)C)cc2)c1O`, the GI50 is 0.452 µM in test [1]; 0.395 µM in test [2]; 1.5 µM in test [3]; 10.1 µM in test [4]; 0.521 µM in [5]; 0.191 µM in [6]. Moreover, the 50% growth inhibitory concentration (GI50) is 0.358 µM in test [7], 0.0427 µM in test [8], 1.37 µM in [9] and 1.42 µM in test [10]. Further, the TGI in test [1] worked out at 23.5 µM; in test [2], 12.5 µM; in test [3] it was 15.3 µM; in test [4], 70.3 µM; in [5], 19.9 µM; in test [6] it was 13.5 µM. Further, the TGI in test [7] came to 16.9 µM; in [8], 0.735 µM; in test [9], 15 µM; in test [10], 45.9 µM.

Take `N#CC(NC(=O)CCl)=C(Cl)Cl`: the GI50 was 1.22 µM in [1]; 1.69 µM in [2]; 1.89 µM in test [3]; 2.15 µM in test [4]; 3.46 µM in test [5]; 1.34 µM in [6]. Further, the GI50 in test [7] was 1.73 µM; in [8] it was 1.94 µM; in test [9] it was 2.74 µM; in [10], 5.05 µM. The concentration for total growth inhibition (TGI) in test [1] was found to be 2.51 µM; in test [2] it was 4.02 µM; in [3], 3.41 µM; in [4], 4.83 µM; in test [5] it was 17.1 µM; in test [6], 2.87 µM. In addition, the TGI was found to be 3.24 µM in [7], 4.03 µM in test [8], 8.01 µM in test [9] and 16 µM in test [10].
